From patent US20070173535A1, “Oxadiazoles having antiproliferative activity” (priority 2002, published 2007)

Columns and labels:
Breast = experiment: NCI GI50 on tumor cells, breast; format: cell-based, human; settings: Breast cell lines; NA = inactive products
Method: (§1) Biological assays were carried out at the National Cancer Institute according to known experimental protocols [(a) Monks A., Scudiero D., Skehan P., Shoemaker R., Paull K., Vistica D., Hose C., Langley J., Cronise P., Vaigro-Wolff A., Gray-Goodrich M., Campbell H., Mayo J., Boyd M., J. Natl. Cancer Inst., 83, 757-766 (1991). (b) Paull K. D., Shoemaker R. H., Hods L., Monks A., Scudiero D. A., Rubinstein L., Plowman J., Boyd M. R., J. Natl. Cancer Inst., 81, 1088-1092 (1989). (c) Boyd M. R., Paull K. D., Rubinstein L. R., Cytotoxic Anticancer Drugs: Models and Concept for Drug discovery, Valeriote F. A., Corbett T., Baker L., Eds., Kluwer Academic Publishers: Amsterdam, 1992, pp. 11].

Prostate = experiment: NCI GI50 on tumor cells, prostate; format: cell-based, human; settings: Prostate cell lines; NA = inactive products
Method: as §1

[1] = system: MCF7 breast, NCI-H460 microcitoma and SF-268 SNC; experiment: NCI preliminary tests on three cell lines, mean GI50; format: cell-based, human; settings: mean concentration causing 50% inhibition of cell growth; N.A. = inactive in preliminary tests on three cell lines
Method: as §1
Table 1 reports the GI50, namely the mean concentration (μM) of substance which causes a 50% inhibition on the cell growth in preliminary tests carried out on three cell lines (MCF7 breast, NCI-H460 microcitoma and SF-268 SNC).

[2] = system: 60 human tumor cell lines; experiment: NCI primary screening on 60 human tumor cell lines, mean over various tumor cells; format: cell-based; settings: for antiproliferative activity: in words, in both cases (three-cell-line preliminary tests and various tumor cells); for GI50 Mean: mean over the tumor cell panels, NA = inactive products
Method: The cytotoxic activity of compounds (I) was evidenced in primary screening studies on 60 human tumor cell lines.
as §1

Melanoma = experiment: NCI GI50 on tumor cells, melanoma; format: cell-based, human; settings: Melanoma cell lines; NA = inactive products
Method: as §1

Kidney = experiment: NCI GI50 on tumor cells, kidney; format: cell-based, human; settings: Kidney cell lines; NA = inactive products
Method: as §1

Leukemia = experiment: NCI GI50 on tumor cells, leukemia; format: cell-based, human; settings: Leukemia cell lines; NA = inactive products
Method: as §1

SNC = experiment: NCI GI50 on tumor cells, SNC; format: cell-based, human; settings: SNC cell lines; NA = inactive products
Method: as §1

Microcitoma = experiment: NCI GI50 on tumor cells, microcitoma; format: cell-based, human; settings: Microcitoma cell lines; NA = inactive products
Method: as §1

Colon = experiment: NCI GI50 on tumor cells, colon; format: cell-based, human; settings: Colon cell lines; NA = inactive products
Method: as §1

Ovary = experiment: NCI GI50 on tumor cells, ovary; format: cell-based, human; settings: Ovary cell lines; NA = inactive products
Method: as §1

Compound	GI50 (Breast) [µM]	GI50 (Prostate) [µM]	GI50 μM) Mean [1] [µM]	antiproliferative activity [2]	GI50 Mean [2] [µM]	GI50 (Melanoma) [µM]	GI50 (Kidney) [µM]	GI50 (Leukemia) [µM]	GI50 (SNC) [µM]	GI50 (Microcitoma) [µM]	GI50 (Colon) [µM]	GI50 (Ovary) [µM]
c1ccc(-c2nnc(-c3c[nH]c4c3Cc3ccccc3-4)o2)cc1 [Ic, 3-[[1,3,4]oxadiazole-5′-phenyl-2′-yl]-1,4-dihydro-indeno[1,2-b]pyrrole]	3.16	4.78	2.9	significant antiproliferative activity	2.9	2.34	6.31	1.82	2.95	3.39	1	4.57
c1ccc2c(c1)ccc1c(-c3nnco3)c[nH]c12 [Ih, 3-[[1,3,4]oxadiazol-2′-yl]-1H-benzo[g]indole]	40	62.3	35.4		35.4	33.8	38	44.6	32.3	22.3	33.8	38.9
Cc1nnc(-c2c[nH]c3c2Cc2ccccc2-3)o1 [Ib, 3-[[1,3,4]oxadiazole-5′-methyl-2′-yl]-1,4-dihydro-indeno[1,2-b]pyrrole]	77.6		75.8		75.8	79.4	91.2	81.3	75.8	93.3		30.2
c1ccc2c(c1)CCc1c(-c3nnco3)c[nH]c1-2 [Ie, 3-[[1,3,4]oxadiazol-2′-yl]-4,5-dihydro-1H-benzo[g]indole]	27.5	32.3	26.6		26.3	28.8	27.5	26.3	28.2	21.8	25.7	28.2
Cn1cc(-c2nnco2)c2ccc3ccccc3c21 [Im, 1-methyl-3-[[1,3,4]oxadiazol-2′-yl]-1H-benzo[g]indole]	44.6	54.9	33.1		33.1	43.6	20.8	54.9	23.9	17.7	38.9	41.6
c1ccc2c(c1)Cc1c(-c3nnco3)c[nH]c1-2 [Ia, 3-[[1,3,4]Oxadiazol-2′-yl]-1,4-dihydro-indeno[1,2-b]pyrrole]	73.2		74.1		74.1	77.3	67.3	79.7	86.7	57.8	81.2	81.2
c1ccc(-c2nnc(-c3c[nH]c4c3ccc3ccccc34)o2)cc1 [Il, 3-[[1,3,4]oxadiazole-5′-phenyl-2′-yl]-1H-benzo[g]indole]	0.6	1.28	1.28	significant antiproliferative activity	1.28	2.71	2.04	0.64	1.21	2.36	0.7	1.7
